Reference: patent US9732075B2, “Benzimidazole-proline derivatives” (IDORSIA PHARMACEUTICALS LTD, priority 2012, dated 2017)

How the values were obtained:
human orexin-2 receptor = human orexin-2 receptor (Homo sapiens (Human), UniProt O43614); assay: In vitro assay: intracellular calcium measurements (FLIPR), antagonistic activity; assay type: cell-based; settings: CHO cells expressing human orexin-2 receptor, orexin-A agonist, geometric mean, read-out: IC50 Ox2
Method in brief: (§1)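 IC50s are geometric means, possibly reference-normalized, from FLIPR calcium peaks in CHO cells bearing human orexin-1 or orexin-2 receptor. Fluo-4 AM/probenecid-loaded cells received antagonist for 120 min before challenge with orexin-A (final 3 nM, ~EC70), with responses compared against vehicle controls.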

human orexin-1 receptor = human orexin-1 receptor (Homo sapiens (Human), UniProt O43613); assay: as above; assay type: cell-based; settings: CHO cells expressing human orexin-1 receptor, orexin-A agonist, geometric mean, read-out: IC50 Ox1
human orexin-1 receptor, sequence (O43613 whole entry): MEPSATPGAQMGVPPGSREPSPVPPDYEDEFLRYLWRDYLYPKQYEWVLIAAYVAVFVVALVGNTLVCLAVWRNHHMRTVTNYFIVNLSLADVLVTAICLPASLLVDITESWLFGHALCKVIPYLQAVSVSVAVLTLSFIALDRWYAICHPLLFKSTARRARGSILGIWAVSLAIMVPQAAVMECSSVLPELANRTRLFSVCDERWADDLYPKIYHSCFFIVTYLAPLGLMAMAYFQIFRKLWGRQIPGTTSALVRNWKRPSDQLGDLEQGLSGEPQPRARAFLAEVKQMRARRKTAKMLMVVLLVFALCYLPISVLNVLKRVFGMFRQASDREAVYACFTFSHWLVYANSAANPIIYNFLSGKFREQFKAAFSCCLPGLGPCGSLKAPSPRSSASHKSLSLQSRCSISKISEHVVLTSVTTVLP
Method in brief: as §1

human orexin-2 receptor, sequence (O43614 whole entry): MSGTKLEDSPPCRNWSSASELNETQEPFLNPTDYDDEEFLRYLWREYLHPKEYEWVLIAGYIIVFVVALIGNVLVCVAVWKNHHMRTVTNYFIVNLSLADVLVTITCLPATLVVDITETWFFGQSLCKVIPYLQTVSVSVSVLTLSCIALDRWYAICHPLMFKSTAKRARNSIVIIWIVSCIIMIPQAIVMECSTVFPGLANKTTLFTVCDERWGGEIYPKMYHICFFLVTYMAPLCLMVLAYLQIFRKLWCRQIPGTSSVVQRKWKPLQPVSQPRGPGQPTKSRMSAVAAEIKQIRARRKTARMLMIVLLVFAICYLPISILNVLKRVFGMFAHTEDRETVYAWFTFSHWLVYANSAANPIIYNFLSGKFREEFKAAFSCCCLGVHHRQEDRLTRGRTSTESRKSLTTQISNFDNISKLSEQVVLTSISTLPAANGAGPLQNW

Structure (SMILES)	IC50 (human orexin-2 receptor)	IC50 (human orexin-1 receptor)
Cc1nc(C(=O)N2CC[C@H](C)[C@H]2c2nc3cccc(C)c3[nH]2)c(-c2ccccc2)s1 [Ex. 4.4]	1170 nM	11 nM
Cc1ccc(-c2cccnc2)c(C(=O)N2CCC[C@@]2(C)c2nc3ccc(Cl)c(C)c3[nH]2)c1 [Ex. 5.217]	274 nM	98 nM
Cc1nc(C(=O)N2CCCC2c2nc3c(C(F)(F)F)cc(C(F)(F)F)cc3[nH]2)c(-c2ccccc2)s1 (stereo not shown) [Ex. 1.118]	364 nM	191 nM
COc1ccc(-n2nccn2)c(C(=O)N2CC[C@H](C)[C@H]2c2nc3c(C)cc(Cl)cc3[nH]2)c1 [Ex. 4.97]	129 nM	4 nM
Cc1ccc(-n2cccn2)c(C(=O)N2CC[C@H](C)[C@H]2c2nc3cc(Cl)c(C)cc3[nH]2)c1 [Ex. 4.73]	1290 nM	17 nM
COc1ccc(-c2cccc(OC(F)(F)F)c2)c(C(=O)N2CCC[C@@]2(C)c2nc3c(C)c(Cl)ccc3[nH]2)c1F [Ex. 5.309]	21 nM	23 nM
CCc1ccc(-c2sc(C)nc2C(=O)N2CCC[C@H]2c2nc3ccc(SC)cc3[nH]2)cc1 [Ex. 1.42]	65 nM	263 nM
Cc1nc(C(=O)N2CC[C@H](C)[C@H]2c2nc3c(F)cccc3[nH]2)c(-c2cccc(Cl)c2)s1 [Ex. 4.18]	2930 nM	43 nM
Cc1cc2[nH]c([C@@H]3[C@@H](C)CCN3C(=O)c3cc(C(F)(F)F)ccc3-c3ccccc3)nc2cc1Cl [Ex. 4.114]	1360 nM	33 nM
C=C1CC(c2nc3c(C)c(Cl)ccc3[nH]2)N(C(=O)c2cc(C)sc2-c2ccc(C)c(C)c2)C1 (stereo not shown) [Ex. 6.74]	11 nM	4 nM
COc1ccc(-n2nccn2)c(C(=O)N2CCC[C@H]2c2nc3cccc(SC)c3[nH]2)c1F [Ex. 1.168]	57 nM	20 nM
Cc1c(Cl)ccc2[nH]c([C@]3(C)CCCN3C(=O)c3c(F)cccc3-n3nccn3)nc12 [Ex. 5.48]	25 nM	12 nM
COc1cccc(-c2ccc(OC)c(F)c2C(=O)N2CCC[C@@]2(C)c2nc3c(C)c(Cl)ccc3[nH]2)c1 [Ex. 5.296]	31 nM	25 nM
CSc1ccc2nc([C@@H]3CCCN3C(=O)c3cc(C(F)(F)F)ccc3-n3nccn3)[nH]c2c1 [Ex. 1.151]	110 nM	763 nM
COc1cccc(-c2ccc(C)cc2C(=O)N2CCC[C@@]2(C)c2nc3cc(C(F)(F)F)ccc3[nH]2)c1 [Ex. 5.188]	119 nM	23 nM
Cc1c(Cl)ccc2[nH]c([C@]3(C)CCCN3C(=O)c3c(F)cccc3-c3ncccn3)nc12 [Ex. 5.222]	68 nM	26 nM
CSc1ccc2nc([C@@H]3CCCN3C(=O)c3cncnc3-c3ccc(Br)c(Cl)c3)[nH]c2c1 [Ex. 1.54]	80 nM	726 nM
Cc1nc(C(=O)N2CC[C@H](C)[C@H]2c2nc3c(C)c(Cl)ccc3[nH]2)c(-c2ccc(F)cc2)s1 [Ex. 4.70]	404 nM	0.6 nM
COc1cccc(-c2ccc(C)cc2C(=O)N2CCC[C@@]2(C)c2nc3cc(C(F)(F)F)c(Cl)cc3[nH]2)c1 [Ex. 5.149]	26 nM	21 nM
COc1cc2nc([C@@H]3[C@@H](C)CCN3C(=O)c3cc(C)ccc3-c3ncccn3)[nH]c2cc1OC [Ex. 4.179]	69 nM	27 nM

Structure (SMILES)	IC50 (human orexin-2 receptor)	IC50 (human orexin-1 receptor)
Cc1nc(C(=O)N2CC[C@H](C)[C@H]2c2nc3c(Cl)cccc3[nH]2)c(-c2ccc(F)c(F)c2)s1 [Ex. 4.126]	2380 nM	43 nM
Cc1ccc(C(=O)N2CCC[C@@]2(C)c2nc3c(F)c(F)ccc3[nH]2)c(-n2nccn2)c1 [Ex. 5.202]	924 nM	227 nM
C=C1C[C@@H](c2nc3cc(OC)ccc3[nH]2)N(C(=O)c2nc(C)sc2-c2cccc(Cl)c2Cl)C1 [Ex. 6.23]	67 nM	452 nM
COc1cc2nc([C@]3(C)CCCN3C(=O)c3cc(C)ccc3-n3nccn3)n(CCF)c2cc1OC [Ex. 7.48]	40 nM	33 nM
Cc1ccc(-n2nccn2)c(C(=O)N2CC[C@H](C)[C@H]2c2nc3cc(C)ccc3[nH]2)c1 [Ex. 4.2]	669 nM	132 nM
CO[C@@H]1C[C@@H](c2nc3c(C)c(Cl)ccc3[nH]2)N(C(=O)c2nc(C)sc2-c2ccccc2)C1 [Ex. 3.6]	4 nM	5 nM
CCn1c([C@]2(C)CCCN2C(=O)c2cc(C)c(C)cc2-n2nccn2)nc2cc(OC)c(OC)cc21 [Ex. 7.14]	50 nM	23 nM
CSc1ccc2[nH]c([C@@H]3CCCN3C(=O)c3nc(C)sc3-c3cccc(Cl)c3)nc2c1 [Ex. 1.15]	45 nM	67 nM
Cc1nc(C(=O)N2CCC[C@@]2(C)c2nc3c(C)c(Cl)ccc3n2C)c(-c2ccccc2)s1 [Ex. 7.7]	3 nM	2 nM
COc1ccc2nc([C@@H]3CCCN3C(=O)c3c(C)cccc3-n3nccn3)[nH]c2c1 [Ex. 1.161]	22 nM	1450 nM
Cc1nc(C(=O)N2CC[C@H](C)[C@H]2c2nc3cc(C(F)(F)F)ccc3[nH]2)c(-c2ccc(F)cc2)s1 [Ex. 4.136]	4360 nM	14 nM
C[C@@]1(c2nc3cc(Cl)c(C(F)(F)F)cc3[nH]2)CCCN1C(=O)c1nc(-c2ccc(F)cc2)sc1-c1ccc(F)cc1 [Ex. 5.291]	347 nM	48 nM
COc1cc2nc([C@@H]3[C@@H](C)CCN3C(=O)c3c(C)cccc3-n3nccn3)[nH]c2cc1OC [Ex. 4.48]	1320 nM	391 nM
COc1cc2nc([C@]3(C)CCCN3C(=O)c3cc(C)ccc3-n3nccn3)n(CC3CC3)c2cc1OC [Ex. 7.47]	60 nM	39 nM
CSc1cccc2nc([C@@H]3CCCN3C(=O)c3c(F)cccc3-n3nccn3)[nH]c12 [Ex. 1.164]	24 nM	217 nM
C=C1C[C@@H](c2nc3cc(OC)ccc3[nH]2)N(C(=O)c2nc(C)sc2-c2ccccc2)C1 [Ex. 6.3]	18 nM	243 nM
COc1cc(F)ccc1-c1nc(C(=O)N2CCC[C@@]2(C)c2nc3c(C)c(Cl)ccc3[nH]2)c(-c2ccc(F)cc2)s1 [Ex. 5.260]	2870 nM	20 nM
Cc1nc(C(=O)N2CC[C@H](C)[C@H]2c2nc3c(C(F)(F)F)cccc3[nH]2)c(-c2cc(F)cc(F)c2)s1 [Ex. 4.157]	1710 nM	13 nM
C=C1CC(c2nc3cc(C(C)(C)C)ccc3[nH]2)N(C(=O)c2cc(C)sc2-c2ccc(C)c(C)c2)C1 (stereo not shown) [Ex. 6.81]	23 nM	19 nM
COc1ccc(-n2nccn2)c(C(=O)N2C[C@H](OC)C[C@H]2c2nc3ccc(Cl)c(C)c3[nH]2)c1F [Ex. 3.11]	9 nM	6 nM

Structure (SMILES)	IC50 (human orexin-2 receptor)	IC50 (human orexin-1 receptor)
COc1ccc(-n2nccn2)c(C(=O)N2C[C@H](OC)C[C@H]2c2nc3ccc(OC)cc3[nH]2)c1 [Ex. 3.20]	40 nM	1860 nM
C=C1C[C@@H](c2nc3cc(OC)ccc3[nH]2)N(C(=O)c2nc(N(C)C)sc2-c2ccc(C)c(C)c2)C1 [Ex. 6.27]	9 nM	5 nM
C=C1C[C@@H](c2nc3cc(OC)ccc3[nH]2)N(C(=O)c2nc(C3CC3)sc2-c2cccc(C)c2)C1 [Ex. 6.26]	24 nM	26 nM
Cc1cc(-c2nc(C(=O)N3CCC[C@@]3(C)c3nc4c(C)c(Cl)ccc4[nH]3)c(-c3ccc(F)cc3)s2)ccc1F [Ex. 5.252]	1640 nM	20 nM
COc1ccc(-n2nccn2)c(C(=O)N2CC[C@H](C)[C@H]2c2nc3cc(Cl)c(C)cc3[nH]2)c1 [Ex. 4.74]	78 nM	4 nM
COc1ccc2nc([C@@H]3CCCN3C(=O)c3cnc(C)nc3-c3ccc(Br)c(Cl)c3)[nH]c2c1 [Ex. 1.33]	48 nM	76 nM
COc1ccccc1-c1ccc(C)cc1C(=O)N1CCC[C@@]1(C)c1nc2cc(C(F)(F)F)c(Cl)cc2[nH]1 [Ex. 5.148]	159 nM	35 nM
Cc1nc(C(=O)N2CCC[C@@]2(C)c2nc3c(C)c(C)c(Br)cc3[nH]2)c(-c2ccccc2C)s1 [Ex. 5.271]	6 nM	5 nM
C=C1C[C@@H](c2nc3ccc(Cl)c(C)c3[nH]2)N(C(=O)c2nc(C)sc2-c2cccc(OC)c2)C1 [Ex. 6.121]	0.5 nM	1 nM
Cc1c(Cl)ccc2[nH]c([C@@H]3[C@@H](C)CCN3C(=O)c3c(F)cccc3-c3ncccn3)nc12 [Ex. 4.177]	219 nM	9 nM
COc1ccccc1-c1nc(C(=O)N2CCC[C@@]2(C)c2nc3c(C)c(Cl)ccc3[nH]2)c(-c2ccc(F)cc2)s1 [Ex. 5.229]	858 nM	54 nM
Cc1nc(C(=O)N2CCCC2c2nc3cc(C(C)(C)C)ccc3[nH]2)c(-c2cccc(Cl)c2)s1 (stereo not shown) [Ex. 1.99]	50 nM	58 nM
CSc1ccc2nc([C@@H]3CCCN3C(=O)c3cnc(C)nc3-c3ccc(Br)c(Cl)c3)[nH]c2c1 [Ex. 1.58]	24 nM	32 nM
Cc1nc(C(=O)N2CCCC2c2nc3cc(C(F)(F)F)c(F)cc3[nH]2)c(-c2ccccc2)s1 (stereo not shown) [Ex. 1.135]	194 nM	32 nM
COc1cccc(-c2sc(C)nc2C(=O)N2CCC[C@@]2(C)c2nc3c(F)c(F)ccc3[nH]2)c1 [Ex. 5.213]	51 nM	16 nM
Cc1c(Cl)ccc2[nH]c([C@@H]3[C@@H](C)CCN3C(=O)c3cc(F)ccc3-c3ccccc3)nc12 [Ex. 4.164]	725 nM	7 nM
C=C1CN(C(=O)c2cc(OC)ccc2-n2nccn2)C(C)(c2nc3cc(OC)ccc3[nH]2)C1 (stereo not shown) [Ex. 6.158]	35 nM	57 nM
Cc1nc(C(=O)N2CC[C@H](C)[C@H]2c2nc3cc(Cl)ccc3[nH]2)c(-c2cccc(Cl)c2)s1 [Ex. 4.11]	4060 nM	10 nM
C=C1CC(c2nc3cc(Cl)c(C)cc3[nH]2)N(C(=O)c2nc(C3CC3)sc2-c2cccc(C)c2)C1 (racemic) [Ex. 6.95]	2 nM	9 nM
